Data as given in ChEMBL document CHEMBL5726231, “Btk inhibitors” (2017).

Target: Tyrosine-protein kinase BTK (Homo sapiens, UniProt Q06187)
Assay: To each well of a black non-binding surface Corning 384-well microplate (Corning Catalog #3820), 5 nL of compound (2000 fold dilution in final assay volume of 10 μL) was dispensed, followed by the addition of 7.5 μL of 1× kinase buffer (50 mM Hepes 7.5, 10 mM MgCl2, 0.01% Brij-35, 1 mM EGTA, 0.05% BSA & 1 mM DTT) containing 5.09 pg/μL (66.67 pM) of BTK enzyme (recombinant protein from baculovirus-transfected Sf9 cells: full-length BTK, 6HIS-tag cleaved). Following a 60 minute compound & enzyme incubation, each reaction was initiated by the addition of 2.5 μL 1× kinase buffer containing 8 μM biotinylated A5 peptide (Biotin-EQEDEPEGDYFEWLE-NH2), and 100 μM ATP. The final reaction in each well of 10 μL consists of 50 pM hBTK, 2 μM biotin-A5-peptide, and 25 μM ATP. Phosphorylation reactions were allowed to proceed for 120 minutes. Reactions were immediately quenched by the addition of 20 uL of 1× quench buffer (15 mM EDTA, 25 mM Hepes 7.3, and 0.1% Triton X-100) containing detection reagents (0.626 nM of LANCE-Eu-W1024-anti-phosphoTyrosine antibody, PerkinElmer and 86.8 nM of Streptavidin-conjugated Dylight 650, Dyomics/ThermoFisher Scientific). After 60 minutes incubation with detection reagents, reaction plates were read on a PerkinElmer EnVision plate reader using standard TR-FRET protocol. Briefly, excitation of donor molecules (Eu-chelate:anti-phospho-antibody) with a laser light source at 337 nm produces energy that can be transferred to Dylight-650 acceptor molecules if this donor:acceptor pair is within close proximity. Fluorescence intensity at both 665 nm (acceptor) and 615 nm (donor) are measured and a TR-FRET ratio calculated for each well (acceptor intensity/donor intensity).

Chain of Tyrosine-protein kinase BTK (Q06187 whole entry): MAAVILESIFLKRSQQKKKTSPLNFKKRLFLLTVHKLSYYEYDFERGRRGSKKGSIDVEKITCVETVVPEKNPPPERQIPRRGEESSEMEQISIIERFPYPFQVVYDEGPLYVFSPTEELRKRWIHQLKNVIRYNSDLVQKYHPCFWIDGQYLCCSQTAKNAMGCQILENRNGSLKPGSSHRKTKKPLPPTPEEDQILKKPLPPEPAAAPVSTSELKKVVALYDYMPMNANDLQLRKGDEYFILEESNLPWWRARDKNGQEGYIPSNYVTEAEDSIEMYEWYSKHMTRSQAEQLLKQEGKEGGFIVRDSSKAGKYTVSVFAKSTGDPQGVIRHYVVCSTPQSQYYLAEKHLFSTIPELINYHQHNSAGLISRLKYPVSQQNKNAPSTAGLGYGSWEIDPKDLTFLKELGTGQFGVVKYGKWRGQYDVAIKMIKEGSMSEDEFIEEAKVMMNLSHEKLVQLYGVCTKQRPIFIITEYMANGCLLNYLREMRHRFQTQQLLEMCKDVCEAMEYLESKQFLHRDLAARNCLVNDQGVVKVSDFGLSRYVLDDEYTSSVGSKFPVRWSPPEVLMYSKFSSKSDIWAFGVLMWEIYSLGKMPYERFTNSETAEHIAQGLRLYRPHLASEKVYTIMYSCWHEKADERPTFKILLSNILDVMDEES

## CCC(=O)N1CCC[C@@H](c2nn(-c3ccc(Oc4ccccc4)cc3)c3c(N)nccc23)C1
  IC50: 2 nM

## COCCC(=O)N1CCC[C@@H](c2nn(-c3ccc(Oc4ccccc4)cc3)c3c(N)nccc23)C1
  IC50: 1.8 nM

## Nc1nccc2c([C@@H]3CCCN(C(=O)C4CC(F)(F)C4)C3)nn(-c3ccc(Oc4ccccc4)cc3)c12
  IC50: 8.9 nM

## CO[C@H](C)C(=O)N1CCC[C@@H](c2nn(-c3ccc(Oc4ccccc4)cc3)c3c(N)nccc23)C1
  IC50: 5.5 nM

## Nc1nccc2c([C@@H]3CCCN(C(=O)C4CC4)C3)nn(-c3ccc(Oc4ccccc4)cc3)c12
  IC50: 3.3 nM

## Nc1nccc2c([C@@H]3CCCN(C(=O)C4(O)CC4)C3)nn(-c3ccc(Oc4ccccc4)cc3)c12
  IC50: 3 nM

## COCC(=O)N1CCC[C@@H](c2nn(-c3ccc(Oc4ccccc4)cc3)c3c(N)nccc23)C1
  IC50: 2.7 nM

## Cc1ncn(C)c1C(=O)N1CCC[C@@H](c2nn(-c3ccc(Oc4ccccc4)cc3)c3c(N)nccc23)C1
  IC50: 9.2 nM

## C=CC(=O)N1CCC[C@@H](c2nn(-c3ccc(Oc4ccccc4)cc3)c3c(N)nccc23)C1
  IC50: 0.66 nM

## Nc1nccc2c([C@@H]3CCCN(C(=O)C4CCC4)C3)nn(-c3ccc(Oc4ccccc4)cc3)c12
  IC50: 3.5 nM

## C[C@@H](O)C(=O)N1CCC[C@@H](c2nn(-c3ccc(Oc4ccccc4)cc3)c3c(N)nccc23)C1
  IC50: 1 nM

## COCCOCC(=O)N1CCC[C@@H](c2nn(-c3ccc(Oc4ccccc4)cc3)c3c(N)nccc23)C1
  IC50: 3.5 nM

## CC1(C(=O)N2CCC[C@@H](c3nn(-c4ccc(Oc5ccccc5)cc4)c4c(N)nccc34)C2)CC1
  IC50: 3.3 nM

## Cc1noc(C)c1C(=O)N1CCC[C@@H](c2nn(-c3ccc(Oc4ccccc4)cc3)c3c(N)nccc23)C1
  IC50: 13.7 nM

## Nc1nccc2c([C@@H]3CCCNC3)nn(-c3ccc(Oc4ccccc4)cc3)c12
  IC50: 30.8 nM

## CO[C@@H](C)C(=O)N1CCC[C@@H](c2nn(-c3ccc(Oc4ccccc4)cc3)c3c(N)nccc23)C1
  IC50: 3.9 nM

## CC(=O)N1CCC[C@@H](c2nn(-c3ccc(Oc4ccccc4)cc3)c3c(N)nccc23)C1
  IC50: 2 nM

## CC(C)C(=O)N1CCC[C@@H](c2nn(-c3ccc(Oc4ccccc4)cc3)c3c(N)nccc23)C1
  IC50: 3.7 nM

## CC#CC(=O)N1CCC[C@@H](c2nn(-c3ccc(Oc4ccccc4)cc3)c3c(N)nccc23)C1
  IC50: 1 nM

## Cn1cncc1C(=O)N1CCC[C@@H](c2nn(-c3ccc(Oc4ccccc4)cc3)c3c(N)nccc23)C1
  IC50: 2.7 nM

## C[C@H](O)C(=O)N1CCC[C@@H](c2nn(-c3ccc(Oc4ccccc4)cc3)c3c(N)nccc23)C1
  IC50: 2.3 nM

## N#CC1(C(=O)N2CCC[C@@H](c3nn(-c4ccc(Oc5ccccc5)cc4)c4c(N)nccc34)C2)CC1
  IC50: 11.8 nM

## CCOCC(=O)N1CCC[C@@H](c2nn(-c3ccc(Oc4ccccc4)cc3)c3c(N)nccc23)C1
  IC50: 3.5 nM
